From US11999746B2, “Compounds” (GlaxoSmithKline Intellectual Property Development Limited, priority 2014, dated 2024)
Where a name gives a salt, the structure may show the parent alone. Read-outs that look alike come from different tables or passages of the source.

What was measured:
[1] = biological target: T1, recombinant human Lp-PLA2 (Homo sapiens, UniProt Q13093); assay: (1b) hrThioPAF assay, recombinant human Lp-PLA2; format: biochemical; conditions: Examples 266-412 were tested here, one experiment or average of multiple experiments, read-out: rhLp-PLA2 (pIC50) (converted)
T1 sequence (Q13093 22-441): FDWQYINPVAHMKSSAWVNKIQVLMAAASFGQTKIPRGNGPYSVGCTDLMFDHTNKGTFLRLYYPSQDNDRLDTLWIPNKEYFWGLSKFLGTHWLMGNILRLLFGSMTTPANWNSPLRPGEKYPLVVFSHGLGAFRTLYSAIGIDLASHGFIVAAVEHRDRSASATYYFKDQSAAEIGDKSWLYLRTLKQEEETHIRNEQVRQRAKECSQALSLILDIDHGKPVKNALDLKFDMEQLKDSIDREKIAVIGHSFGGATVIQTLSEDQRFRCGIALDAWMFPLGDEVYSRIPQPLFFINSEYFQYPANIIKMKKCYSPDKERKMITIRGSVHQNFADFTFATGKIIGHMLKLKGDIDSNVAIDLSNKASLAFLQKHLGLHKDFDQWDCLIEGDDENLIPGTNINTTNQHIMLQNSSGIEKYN
Source text: 1-O-Hexadecyl-2-deoxy-2-thio-S-acetyl-sn-glyceryl-3-phosphorylcholine (2-thio-PAF) is a substrate for PAF-hydrolases (PAF-AH) commercially available from Cayman Chemical. Upon cleavage with PAF-AH, the free thiol is released at the sn-2 position and can then react with 7-diethylamino-3-(4′-maleimidylphenyl)-4-methylcoumarin (CPM) a thiol-reactive coumarin. This reaction (Michael addition) results in an increase in fluorescence. Inhibitors of Lp-PLA2 therefore prevent this cleavage and no fluorescent increase is observed.
The Thio-PAF assay was run as an unquenched 20 μL assay. The source plate containing the compounds to be tested was prepared by making 1:3 (by volume) serial dilution of the compounds within DMSO on 384-well microplate. Then, 5 μL of the compounds on compound source plate were transferred into 384 well Greiner 784076 (black) plates using STAR+(Hamilton) liquid dispenser. 10 μL of recombinant human Lp-PLA2 enzyme (20 pM rhLp-PLA2 in assay buffer of 50 mM HEPES, pH 7.4, 150 mM NaCl, 1 mM CHAPS) was added to each well of the plate. 5 μL of substrate comprising 40 μM 2-thio-PAF [from ethanol stock], 40 μM CPM [from a DMSO stock] and 400 μM NEM (N-ethylmaleimide) [made fresh daily in DMSO] in assay buffer (50 mM HEPES, pH 7.4, 150 mM NaCl, 1 mM CHAPS) was added to 384 well Greiner 784076 black plates. Plates were vortexed for 10 sec. The plate was covered to protect it from light and incubated for 20 min at 25° C. The plates were read for fluorescence intensity at ex: 380 nm/em: 485 nm using Envision plate reader (Perkin Elmer). Raw data were transferred to Excel software and pIC50 data, curve and QC analysis was conducted by using XL fit module in Excel.

[2] = biological target: T2, Lp-PLA2 in human plasma (Homo sapiens, UniProt Q13093); assay: (3b) Lp-PLA2 human plasma alternative Thio-PAF assay; format: biochemical; conditions: pooled human plasma, read-out: pIC50 in the Lp-PLA2 human plasma assay (converted)
T2 construct: from tissue; host or cells: pooled human plasma
T2 sequence (Q13093 22-441): T1 sequence (Q13093 22-441)
Procedure: (3b) Alternative Thio-PAF Assay
The human plasma assay utilizes the same thioester analog of PAF as described in (1b) “hr ThioPAF” assay. This assay may detect the activity of Lp-PLA2 in human plasma, as determined by specific inhibition by Lp-PLA2 inhibitors.
The thio-PAF assay was run as a quenched 20 μL assay. Compounds source plate was prepared by making 1:3 (by volume) serial dilution of the compounds into pure DMSO on 96-well microplate. 5 μL of compounds on compound source plate were transferred to 96-well Corning 3686 (black) low-volume plates by STAR+(Hamilton) liquid dispenser. 10 μL pooled human plasma, which was previously aliquoted and frozen, was added. Plates were centrifuged for 30 sec at 1000 rpm. After 15 minutes preincubation at room temperature, 5 μL of substrate solution comprising 2 mM 2-thio-PAF [from ethanol stock], 52 μM CPM [from a DMSO stock] and 2.5 mM NEM (N-ethylmaleimide) [made fresh daily in DMSO] in assay buffer (50 mM HEPES, pH 7.4, 150 mM NaCl, 1 mM CHAPS) was added to 96-well Corning 3686 (black) low-volume plates. After 3 mins, reaction was quenched with 10 μL of 5% aqueous trifluoroacetic acid (TFA). Plates were centrifuged 30 sec at 1000 rpm, covered to protect from light and incubated for 10 min at room temperature. Plates were read at ex: 380 nm/em: 485 nm using Envision plate reader (Perkin Elmer). Raw data were transferred to Excel software and pIC50 data, curve and QC analysis was conducted by using XL fit module in Excel.

[3] = (3b) alternative Thio-PAF assay, Examples of 266-412 were tested here
[4] = (3a) Thio-PAF assay, Examples 1-265 and 413-430 were tested here

SMILES: O=c1nc(OCc2cc(F)c(Oc3cncc(C(F)(F)F)c3)c(F)c2)cc2n1CC1(CCOCC1)N2 [Example 401, 7-((3,5-Difluoro-4-((5-(trifluoromethyl)pyridin-3-yl)oxy)benzyl)oxy)-2′,3′,5′,6′-tetrahydro-1H-spiro[imidazo[1,2-c]pyrimidine-2,4′-pyran]-5(3H)-one]
- IC50 [1]: 0.000631 µM
- IC50 [2, 3]: ≤ 0.1 µM

SMILES: O=c1nc(OCc2ccc(F)c(F)c2)cc2n1CC1(CCOCC1)N2 [Example 402, 7-((3,4-Difluorobenzyl)oxy)-2′,3′,5′,6′-tetrahydro-1H-spiro[imidazo[1,2-c]pyrimidine-2,4′-pyran]-5(3H)-one]
- IC50 [1]: ≤ 10 µM
- IC50 [2, 3]: ≤ 0.1 µM

SMILES: Cc1ccc(Oc2c(F)cc(COc3cc4n(c(=O)n3)CC3(CCOCC3)N4)cc2F)cn1 [Example 403, 7-((3,5-Difluoro-4-((6-methylpyridin-3-yl)oxy)benzyl)oxy)-2′,3′,5′,6′-tetrahydro-1H-spiro[imidazo[1,2-c]pyrimidine-2,4′-pyran]-5(3H)-one]
- IC50 [1]: ≤ 10 µM
- IC50 [2, 3]: ≤ 0.1 µM

SMILES: Cc1ccc(Oc2c(F)cc(COc3cc4n(c(=O)n3)CC3(CCOCC3)N4C)cc2F)cn1 [Example 405, 7-((3,5-Difluoro-4-((6-methylpyridin-3-yl)oxy)benzyl)oxy)-1-methyl-2′,3′,5′,6′-tetrahydro-1H-spiro[imidazo[1,2-c]pyrimidine-2,4′-pyran]-5(3H)-one]
- IC50 [1]: ≤ 0.1 µM
- IC50 [2, 3]: ≤ 0.1 µM

SMILES: O=c1nc(OCc2ccc(F)c(F)c2)cc2n1CC1(CCNCC1)N2 [Example 406, 7-((3,4-Difluorobenzyl)oxy)-1H-spiro[imidazo[1,2-c]pyrimidine-2,4′-piperidin]-5(3H)-one]
- IC50 [1]: ≤ 10 µM
- IC50 [2, 3]: ≤ 0.1 µM

SMILES: CC(=O)N1CCC2(CC1)Cn1c(cc(OCc3ccc(F)c(F)c3)nc1=O)N2C(C)=O [Example 408, 1,1-(7-((3,4-difluorobenzyl)oxy)-5-oxo-1H-spiro[imidazo[1,2-c]pyrimidine-2,4′-piperidin]-1,1′(3H,5H)-diyl)diethanone]
- IC50 [1]: ≤ 10 µM
- IC50 [2, 3]: ≤ 0.1 µM

SMILES: O=c1nc(OCc2cc(F)c(Oc3cncc(C(F)(F)F)c3)c(F)c2)cc2n1CC1(CCN(Cc3ccccc3)CC1)N2 [Example 411, 1′-Benzyl-7-((3,5-difluoro-4-((5-(trifluoromethyl)pyridin-3-yl)oxy)benzyl)oxy)-1H-spiro[imidazo[1,2-c]pyrimidine-2,4′-piperidin]-5(3H)-one]
- IC50 [1]: ≤ 0.001 µM
- IC50 [2, 4]: ≤ 10 µM
- IC50 [2, 3]: ≤ 0.1 µM

SMILES: N#Cc1cc(COc2cc3n(c(=O)n2)CC2(CCN(Cc4ccccc4)CC2)N3)ccc1F [Example 412, 5-(((1′-Benzyl-5-oxo-3,5-dihydro-1H-spiro[imidazo[1,2-c]pyrimidine-2,4′-piperidin]-7-yl)oxy)methyl)-2-fluorobenzonitrile]
- IC50 [1]: ≤ 10 µM
- IC50 [2, 4]: ≤ 10 µM

SMILES: N#Cc1cc(COc2cc3n(c(=O)n2)CC2CNCCN32)ccc1F (stereo not drawn) [Example E266, 2-Fluoro-5-(((9-oxo-2,3,4,9,11,11a-hexahydro-1H-pyrazino[1′,2′:3,4]imidazo[1,2-c]pyrimidin-7-yl)oxy)methyl)benzonitrile]
- IC50 [1]: ≤ 0.1 µM
- IC50 [2, 3]: ≤ 0.1 µM

SMILES: O=c1nc(OCc2ccc(Oc3ccnc(C(F)(F)F)c3)c(F)c2)cc2n1CC1CNCCN21 (stereo not drawn) [Example E267, 7-((3-Fluoro-4-((2-(trifluoromethyl)pyridin-4-yl)oxy)benzyl)oxy)-3,4,11,11a-tetrahydro-1H-pyrazino[1′,2′:3,4] imidazo [1,2-c]pyrimidin-9(2H)-one]
- IC50 [1]: ≤ 0.1 µM
- IC50 [2, 3]: ≤ 0.1 µM

SMILES: O=C(O)C(F)(F)F.[2H]C1([2H])C2CNCCN2c2cc(OCc3ccc(F)c(C#N)c3)nc(=O)n21 (stereo not drawn) [Example E269, 5-(((11,11-Dideutero-9-oxo-2,3,4,9,11,11a-hexahydro-1H-pyrazino[1′,2′:3,4]imidazo [1,2-c]pyrimidin-7-yl)oxy)methyl)-2-fluorobenzonitrile 2,2,2-trifluoroacetate]
- IC50 [1]: ≤ 10 µM
- IC50 [2, 3]: ≤ 0.1 µM

SMILES: O=c1nc(OCc2cc(F)c(Oc3ccnc(C(F)(F)F)c3)c(F)c2)cc2n1CC1CNCCN21 (stereo not drawn) [Example E270, 7-((3,5-Difluoro-4-((2-(trifluoromethyl)pyridin-4-yl)oxy)benzyl)oxy)-3,4,11,11a-tetrahydro-1H-pyrazino[1′,2′:3,4] imidazo [1,2-c]pyrimidin-9(2H)-one]
- IC50 [1]: ≤ 10 µM
- IC50 [2, 3]: ≤ 0.1 µM

SMILES: N#Cc1cccc(COc2cc3n(c(=O)n2)CC2CNCCN32)c1 (stereo not drawn) [Example E272, 3-(((9-Oxo-2,3,4,9,11,11a-hexahydro-1H-pyrazino[1′,2′:3,4]imidazo [1,2-c]pyrimidin-7-yl)oxy)methyl) benzonitrile]
- IC50 [1]: ≤ 10 µM
- IC50 [2, 3]: ≤ 0.1 µM

SMILES: O=c1nc(OCc2cc(F)c(Oc3cncc(C(F)(F)F)c3)c(F)c2)cc2n1CC1CNCCN21 (stereo not drawn) [Example E273, 7-((3,5-Difluoro-4-((5-(trifluoromethyl)pyridin-3-yl)oxy)benzyl)oxy)-3,4,11,11a-tetrahydro-1H-pyrazino[1′,2′:3,4] imidazo [1,2-c]pyrimidin-9(2H)-one]
- IC50 [1]: ≤ 0.001 µM
- IC50 [2, 3]: ≤ 0.1 µM

SMILES: O=c1nc(OCc2ccc(F)c(F)c2)cc2n1CC1CNCCN21 (stereo not drawn) [Example E274, 7-((3,4-Difluorobenzyl)oxy)-3,4,11,11a-tetrahydro-1H-pyrazino[1′,2′:3,4] imidazo [1,2-c]pyrimidin-9(2H)-one]
- IC50 [1]: ≤ 0.1 µM
- IC50 [2, 3]: ≤ 0.1 µM

SMILES: Cc1ccc(Oc2c(F)cc(COc3cc4n(c(=O)n3)CC3CNCCN43)cc2F)cn1 (stereo not drawn) [Example E279, 7-((3,5-Difluoro-4-((6-methylpyridin-3-yl)oxy)benzyl)oxy)-3,4,11,11a-tetrahydro-1H-pyrazino[1′,2′:3,4] imidazo [1,2-c]pyrimidin-9(2H)-one]
- IC50 [1]: ≤ 10 µM
- IC50 [2, 3]: ≤ 0.1 µM

SMILES: CCN1CCN2c3cc(OCc4ccc(F)c(C#N)c4)nc(=O)n3CC2C1 (stereo not drawn) [Example E280, 5-(((2-Ethyl-9-oxo-2,3,4,9,11,11a-hexahydro-1H-pyrazino[1′,2′:3,4]imidazo[1,2-c]pyrimidin-7-yl)oxy)methyl)-2-fluorobenzonitrile]
- IC50 [1]: ≤ 10 µM
- IC50 [2, 3]: ≤ 0.1 µM

SMILES: CC(=O)N1CCN2c3cc(OCc4ccc(F)c(C#N)c4)nc(=O)n3CC2C1 (stereo not drawn) [Example E281, 5-(((2-Acetyl-9-oxo-2,3,4,9,11,11a-hexahydro-1H-pyrazino[1′,2′:3,4]imidazo[1,2-c]pyrimidin-7-yl)oxy)methyl)-2-fluorobenzonitrile, trifluoroacetic Acid Salt]
- IC50 [1]: ≤ 10 µM
- IC50 [2, 3]: ≤ 0.1 µM

SMILES: CCS(=O)(=O)N1CCN2c3cc(OCc4ccc(F)c(C#N)c4)nc(=O)n3CC2C1 (stereo not drawn) [Example E283, 5-(((2-(Ethylsulfonyl)-9-oxo-2,3,4,9,11,11a-hexahydro-1H-pyrazino[1,2′:3,4]imidazo[1,2-c]pyrimidin-7-yl)oxy)methyl)-2-fluorobenzonitrile]
- IC50 [1]: ≤ 10 µM
- IC50 [2, 3]: ≤ 0.1 µM
